In test [1] the test system is essential tremor. To be noted: open-label report, essential tremor patients; cited from earlier work.
A further test has as its system harmaline-induced tremor. The test can be described thus: Harmaline-induced tremors in rats. The format is in vivo, Sprague-Dawley rats. To be noted: for Tremor Score Median: harmaline 6 mg/kg i.p. 60 min later, observed 30 min, vehicle median 6.00, p<0.01 vs vehicle. From the text: Harmaline-induced tremor in rats is a commonly accepted animal model that is predictive of essential tremor and related movement disorders in human (Miwa H, et. al., Differential expression of c-Fos following administration of two tremorgenic agents: harmaline and oxotremorine, NeuroReport, 2000, 11 (11), 2385-2390; Stanford J A and Fowler S C, At low doses, harmaline increases forelimb tremor in the rat, Neurosci. Lett., 1998, 241 (1), 41-44; Sinton C M, The effectiveness of different isomers of octanol as blockers of harmaline-induced tremor, Pfluegers Arch., 1989, 414 (1), 31-6).
An enantiomer of Formula (Ib) was evaluated for efficacy in treating essential tremor and related movement disorders with doses up to 30 mg/kg. The enantiomer of Formula (Ib) or vehicle (0.5% hydroxypropyl methylcellulose) was administered orally by gavage in a dose volume equivalent to 5 mL/kg to Sprague-Dawley rats (135 to 275 g). Harmaline (6 mg/kg in volume of 5 mL/kg, i.p.) was administered 60 min thereafter. Immediately after the harmaline administration, rats were placed individually in a blinded fashion in plastic cages on wood-chip bedding and observed for 30 minutes. Appearance of tremors was scored using a nine-item checklist. The checklist includes scoring for: tremors at rest, tremors during locomotion, intermittent tremors, continuous tremors, tremors provoked by tail-restraint, generalized tremors (head, body and tail), tremors of the head only, tremors of the body only and tremors of the tail only. Signs observed in rats treated with vehicle or test compound are compared by ranking tremor quality and severity.
Tremor provoked following tail-restraint was assigned a score =1. Tremors that appear continuously were assigned a score =2, while tremors that appear intermittently were assigned a score =1. The appearance of generalized tremors were assigned a score =2, while a score =1 was assigned to tremor that involves only the head, body or tail of the rat. The severity of tremor is scored subjectively as mild in intensity or as moderate or marked. […]

For test [2], the system named is essential tremor. To be noted: nine patients with essential tremor; cited from earlier work.

Consider `NCC1(CC(=O)O)CCCCC1` [gabapentin, Gabapentin], for which the effect on tremor entry with essential tremor [1] was “reduced tremor in five patients”.

In the case of `NC(=O)OC[C@@H](O)c1ccccc1Cl` [Formula (Ib)], the “Tremor Score Median” value in the test on harmaline-induced tremor (20 mg/kg p.o.) is 2.00; with harmaline-induced tremor (30 mg/kg p.o.) it was 1.20. For the same compound, the “reduction in the tremor score in drug-treated groups compared to the vehicle-treated group” value in the test on harmaline-induced tremor (Kruskal-Wallis nonparametric one-way method, rats, p.o.) is on record as “significant”. For `CC1(C)O[C@@H]2[C@@H](CO[C@@]3(COS(N)(=O)=O)OC(C)(C)O[C@@H]23)O1` [Topiramate], the “patient self-rating after topiramate therapy” value with essential tremor [2] was “Eight patients rated themselves as better and with less disability”.
